Assay results: patent US11851406B2, “Positive allosteric modulators of the muscarinic acetylcholine receptor M1” (Vanderbilt University, priority 2018, dated 2023)

Assays:
[1] = target: T1, human mAChR M1 (Homo sapiens, UniProt P11229); assay: mAChR M1 cell-based functional assay (calcium mobilization), PAM activity: increase in the EC20 acetylcholine response; settings: CHO-K1 cells expressing hM1; calcium flux (Fluo-4); potentiation of EC20 acetylcholine response
T1 sequence (P11229 1-460): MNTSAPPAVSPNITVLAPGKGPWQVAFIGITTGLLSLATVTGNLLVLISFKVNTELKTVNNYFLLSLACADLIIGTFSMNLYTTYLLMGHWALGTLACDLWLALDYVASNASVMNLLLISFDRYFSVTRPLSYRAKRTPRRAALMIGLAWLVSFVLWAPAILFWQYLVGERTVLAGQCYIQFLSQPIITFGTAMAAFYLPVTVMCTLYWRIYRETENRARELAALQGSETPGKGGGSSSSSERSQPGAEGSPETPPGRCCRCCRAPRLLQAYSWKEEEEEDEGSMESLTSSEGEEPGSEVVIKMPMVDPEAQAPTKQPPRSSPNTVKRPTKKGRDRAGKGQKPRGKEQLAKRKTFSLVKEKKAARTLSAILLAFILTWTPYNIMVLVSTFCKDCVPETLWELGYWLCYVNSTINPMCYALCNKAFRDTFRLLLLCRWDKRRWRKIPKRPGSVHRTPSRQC
Text: (§1) Chinese hamster ovary (CHO-K1) cells stably expressing rat (r)M1 were purchased from the American Type Culture Collection and cultured according to their indicated protocol. CHO cells stably expressing human (h)M2, hM3, and hM5 were described previously (Levey, et al., 1991); hM1 and hM4 cDNAs were purchased from Missouri S&T cDNA Resource; rM4 cDNA was provided by T. I. Bonner (National Institutes of Health, Bethesda, Md.). rM2 and rM3 were cloned from a rat brain cDNA library and sequence verified. hM1, rM2, rM3, hM4, and rM4 cDNAs were used to stably transfect CHO-K1 cells purchased from the American Type Culture Collection using Lipofectamine2000. To make stable rM2, hM2, rM3, hM4, and rM4 cell lines for use in calcium mobilization assays, these cells also were stably transfected with a chimeric G-protein (Gqi5) (provided by B. R. Conklin, University of California, San Francisco) using Lipofectamine 2000. rM1, hM1, rM3, hM3, rM5, and hM5 cells were grown in Ham's F-12 medium containing 10% heat-inactivated fetal bovine serum (FBS), 20 mM HEPES, and 50 μg/mL G418 sulfate. rM2-Gqi5, hM2-Gqi5, and hM4-Gqi5 cells were grown in the same medium also containing 500 μg/mL Hygromycin B. Stable rM4-Gqi5 cells were grown in DMEM containing 10% heat-inactivated FBS, 20 mM HEPES, 400 μg/mL G418 sulfate, and 500 μg/mL Hygromycin B.
(§2) For high throughput measurement of agonist-evoked increases in intracellular calcium, CHO-K1 cells stably expressing muscarinic receptors were plated in growth medium lacking G418 and hygromycin at 15,000 cells/20 μL/well in Greiner 384-well black-walled, tissue culture (TC)-treated, clear-bottom plates (VWR). Cells were incubated overnight at 37° C. and 5% CO2. The next day, cells were washed using an ELX 405 (BioTek) with four washes (80 μL) of assay buffer then aspirated to 20 μL. Next, 20 μL of 16 μM Fluo-4/acetoxymethyl ester (Invitrogen, Carlsbad, Calif.) prepared as a 2.3 mM stock in DMSO and mixed in a 1:1 ratio with 10% (w/v) Pluronic F-127 and diluted in assay buffer was added to the wells and the cell plates were incubated for 50 min at 37° C. and 5% CO2. Dye was removed by washing with the ELX 405 (four 80 μL washes of assay buffer) then aspirated to 20 μL. Compound master plates were formatted in an 11 point CRC format (1:3 dilutions) in 100% DMSO with a starting concentration of 10 mM using the BRAVO liquid handler (Agilent). Test compound CRCs were then transferred to daughter plates (240 nL) using the Echo acoustic plate reformatter (Labcyte, Sunnyvale, Calif.) and then diluted into assay buffer (40 μL) to a 2× stock using a Thermo Fisher Combi (Thermo Fisher Scientific, Waltham, Mass.).
(§3) Calcium flux was measured using the Functional Drug Screening System (FDSS) 6000 (Hamamatsu Corporation, Tokyo, Japan) as an increase in the fluorescent static ratio. Compounds were applied to cells (20 μL, 2×) using the automated system of the FDSS 6000 at 4 s into the 300 s protocol and the data were collected at 1 Hz. At 144 s into the 300 s protocol, 10 μL of an EC20 concentration of the muscarinic receptor agonist acetylcholine was added (5×), followed by the addition of 12 μL an EC80 concentration of acetylcholine at the 230 s time point (5×). Agonist activity was analyzed as a concentration-dependent increase in calcium mobilization upon compound addition. Emax values for agonist activity are expressed relative to the maximum for acetylcholine. Positive allosteric modulator activity was analyzed as a concentration-dependent increase in the EC20 acetylcholine response. Antagonist activity was analyzed as a concentration-dependent decrease in the EC80 acetylcholine response. Concentration-response curves were generated using a four-parameter logistical equation in XLfit curve fitting software (IDBS, Bridgewater, N.J.) for Excel (Microsoft, Redmond, Wash.) or Prism (GraphPad Software, Inc., San Diego, Calif.).

[2] = target: T1, human mAChR M1; assay: mAChR M1 cell-based functional assay (calcium mobilization), agonist activity upon compound addition alone; settings: CHO-K1 cells expressing hM1; for EC50: calcium mobilization upon compound addition, no acetylcholine; for Emax: compound alone, relative to the maximum for acetylcholine
Text: as §1, §2, §3

Cc1nc(-c2ccc(Cc3cc(C(=O)NC4CC5(COC5)C4)nc(-n4cccn4)c3)cc2)co1 [Compound 23, 4-(4-(2-methyloxazol-4-yl)benzyl)-6-(1H-pyrazol-1-yl)-N-(2-oxaspiro[3.3]heptan-6-yl)picolinamide]
EC50 [1]: 6250 nM
Emax [1]: 69%
EC50 [2]: > 10 µM
Emax [2]: < 5%

Cc1c(Cc2ccc(-n3cccn3)cc2)cc(C(=O)N[C@H]2CC[C@@H]2O)nc1-c1ccn(C)n1 [Compound 60, 4-(4-(1H-pyrazol-1-yl)benzyl)-N-((1S,2S)-2-hydroxycyclobutyl)-5-methyl-6-(1-methyl-1H-pyrazol-3-yl)picolinamide]
Emax [1]: 79%
EC50 [2]: > 10 µM
Emax [2]: < 5%

Cc1c(Cc2ccc(-c3ccn(C)n3)cc2)cc(C(=O)NC[C@H]2CCCO2)nc1-c1ccn(C)n1 [Compound 16, (R)-5-methyl-6-(1-methyl-1H-pyrazol-3-yl)-4-(4-(1-methyl-1H-pyrazol-3-yl)benzyl)-N-((tetrahydrofuran-2-yl)methyl)picolinamide]
Emax [1]: 62%
EC50 [2]: > 10 µM
Emax [2]: < 5%

Cc1c(Cc2ccc(-c3cnn(C)c3)nc2)cc(C(=O)NC2CCOCC2)nc1-n1cccn1 [Compound 50, 5-methyl-4-((6-(1-methyl-1H-pyrazol-4-yl)pyridin-3-yl)methyl)-6-(1H-pyrazol-1-yl)-N-(tetrahydro-2H-pyran-4-yl)picolinamide]
Emax [1]: 65%
EC50 [2]: > 10 µM
Emax [2]: < 5%

Cn1ccc(-c2ccc(Cc3cc(C(=O)NC4CC5(COC5)C4)nc(-c4ccn(C)n4)c3)cc2)n1 [Compound 36, 6-(1-methyl-1H-pyrazol-3-yl)-4-(4-(1-methyl-1H-pyrazol-3-yl)benzyl)-N-(2-oxaspiro[3.3]heptan-6-yl)picolinamide]
EC50 [1]: 3710 nM
Emax [1]: 38%
EC50 [2]: > 10 µM
Emax [2]: < 5%

Cc1c(Cc2ccc(-c3ccn(C)n3)nc2)cc(C(=O)N[C@H]2CCCC[C@@H]2O)nc1-n1cccn1 [Compound 46, N-((1S,2S)-2-hydroxycyclohexyl)-5-methyl-4-((6-(1-methyl-1H-pyrazol-3-yl)pyridin-3-yl)methyl)-6-(1H-pyrazol-1-yl)picolinamide]
EC50 [1]: 881 nM
Emax [1]: 85%
EC50 [2]: ≥ 10 µM
Emax [2]: 28%

Cc1c(Cc2ccc(-c3ccn(C)n3)cc2)cc(C(=O)NC2CCOCC2)nc1-c1ccn(C)n1 [Compound 1, 5-methyl-6-(1-methyl-1H-pyrazol-3-yl)-4-(4-(1-methyl-1H-pyrazol-3-yl)benzyl)-N-(tetrahydro-2H-pyran-4-yl)picolinamide]
EC50 [1]: 8720 nM
Emax [1]: 85%
EC50 [2]: > 10 µM
Emax [2]: < 5%

Cc1c(Cc2ccc(-n3cccn3)cc2)cc(C(=O)NC2CCOCC2(C)C)nc1-c1ccn(C)n1 (stereo not drawn) [Compound 64, 4-(4-(1H-pyrazol-1-yl)benzyl)-N-(3,3-dimethyltetrahydro-2H-pyran-4-yl)-5-methyl-6-(1-methyl-1H-pyrazol-3-yl)picolinamide]
EC50 [1]: 2890 nM
Emax [1]: 91%
EC50 [2]: > 10 µM
Emax [2]: < 5%

Cc1nc(-c2ccc(Cc3cc(C(=O)NC4CCOCC4)nc(-n4cccn4)c3C)cc2)co1 [Compound 51, 5-methyl-4-(4-(2-methyloxazol-4-yl)benzyl)-6-(1H-pyrazol-1-yl)-N-(tetrahydro-2H-pyran-4-yl)picolinamide]
Emax [1]: 69%
EC50 [2]: > 10 µM
Emax [2]: < 5%

Cc1c(Cc2ccc(-c3cnn(C)c3)nc2)cc(C(=O)N[C@H]2CCCC[C@@H]2O)nc1-n1cccn1 [Compound 47, N-((1S,2S)-2-hydroxycyclohexyl)-5-methyl-4-((6-(1-methyl-1H-pyrazol-4-yl)pyridin-3-yl)methyl)-6-(1H-pyrazol-1-yl)picolinamide]
EC50 [1]: 675 nM
Emax [1]: 85%
EC50 [2]: 9.08 µM
Emax [2]: 29%

Cc1c(Cc2ccc(-c3ccn(C)n3)nc2)cc(C(=O)N[C@H]2CCOC[C@@H]2O)nc1-n1cccn1 [Compound 44, N-((3R,4S)-3-hydroxytetrahydro-2H-pyran-4-yl)-5-methyl-4-((6-(1-methyl-1H-pyrazol-3-yl)pyridin-3-yl)methyl)-6-(1H-pyrazol-1-yl)picolinamide]
EC50 [1]: 1090 nM
Emax [1]: 83%
EC50 [2]: ≥ 10 µM
Emax [2]: 23%

Cn1ccc(-c2ccc(Cc3cc(C(=O)N[C@H]4CCC[C@@H]4O)nc(-c4ccn(C)n4)c3)cc2)n1 [Compound 38, N-((1S,2S)-2-hydroxycyclopentyl)-6-(1-methyl-1H-pyrazol-3-yl)-4-(4-(1-methyl-1H-pyrazol-3-yl)benzyl)picolinamide]
EC50 [1]: 2720 nM
Emax [1]: 39%
EC50 [2]: > 10 µM
Emax [2]: < 5%

Cc1c(Cc2ccc(-n3cccn3)cc2)cc(C(=O)NC[C@H]2CCCO2)nc1-c1ccn(C)n1 [Compound 63, (R)-4-(4-(1H-pyrazol-1-yl)benzyl)-5-methyl-6-(1-methyl-1H-pyrazol-3-yl)-N-((tetrahydrofuran-2-yl)methyl)picolinamide]
Emax [1]: 57%
EC50 [2]: > 10 µM
Emax [2]: < 5%

Cc1nc(-c2ccc(Cc3cc(C(=O)N[C@H]4CCCC[C@@H]4O)nc(-n4cccn4)c3)cc2)co1 [Compound 22, N-((1S,2S)-2-hydroxycyclohexyl)-4-(4-(2-methyloxazol-4-yl)benzyl)-6-(1H-pyrazol-1-yl)picolinamide]
EC50 [1]: 634 nM
Emax [1]: 86%
EC50 [2]: ≥ 10 µM
Emax [2]: 11%

Cc1c(Cc2ccc(-c3ccn(C)n3)cc2)cc(C(=O)NC2CC3(COC3)C2)nc1-c1ccn(C)n1 [Compound 11, 5-methyl-6-(1-methyl-1H-pyrazol-3-yl)-4-(4-(1-methyl-1H-pyrazol-3-yl)benzyl)-N-(2-oxaspiro[3.3]heptan-6-yl)picolinamide]
EC50 [1]: 4720 nM
Emax [1]: 88%
EC50 [2]: > 10 µM
Emax [2]: < 5%

Cn1cc(-c2ccc(Cc3cc(C(=O)N[C@H]4CCCC[C@@H]4O)nc(-n4cccn4)c3)cn2)cn1 [Compound 20, N-((1S,2S)-2-hydroxycyclohexyl)-4-((6-(1-methyl-1H-pyrazol-4-yl)pyridin-3-yl)methyl)-6-(1H-pyrazol-1-yl)picolinamide]
EC50 [1]: 2250 nM
Emax [1]: 61%
EC50 [2]: > 10 µM
Emax [2]: < 5%

Cc1c(Cc2ccc(-n3cccn3)cc2)cc(C(=O)NC2CCOCC2)nc1-c1ccn(C)n1 [Compound 57, 4-(4-(1H-pyrazol-1-yl)benzyl)-5-methyl-6-(1-methyl-1H-pyrazol-3-yl)-N-(tetrahydro-2H-pyran-4-yl)picolinamide]
EC50 [1]: 5700 nM
Emax [1]: 81%
EC50 [2]: > 10 µM
Emax [2]: < 5%
